Data taken from US11046716B2, “Beta-lactamase inhibitors” (priority 2015, dated 2021).

Key:
SHV-5 = molecular target: T1, SHV-5 (Klebsiella pneumoniae, UniProt P0A3M1); test: β-lactamase enzyme inhibition assay, SHV-5 (cefotaxime substrate); type: biochemical
T1 construct: made in house; host or cells: E. coli BL21(DE3)
Summary of the method: (§1)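 IC50 is the inhibitor level cutting initial substrate hydrolysis rate by 50% relative to no-inhibitor controls, after 15 min enzyme–inhibitor preincubation at 37 °C. KPC-2 read with imipenem at 300 nm, SHV-5 with cefotaxime at 260 nm; enzymes were untagged, E. coli-expressed, chromatographically purified.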

KPC-2 = molecular target: T2, KPC-2 (Klebsiella pneumoniae, UniProt Q9F663); test: β-lactamase enzyme inhibition assay, KPC-2 (imipenem substrate); type: biochemical; conditions: Class A; imipenem substrate, 300 nm; read-out: KPC-2
T2 construct: made in house; host or cells: E. coli BL21(DE3)
T2 sequence (Q9F663 25-293, looked up): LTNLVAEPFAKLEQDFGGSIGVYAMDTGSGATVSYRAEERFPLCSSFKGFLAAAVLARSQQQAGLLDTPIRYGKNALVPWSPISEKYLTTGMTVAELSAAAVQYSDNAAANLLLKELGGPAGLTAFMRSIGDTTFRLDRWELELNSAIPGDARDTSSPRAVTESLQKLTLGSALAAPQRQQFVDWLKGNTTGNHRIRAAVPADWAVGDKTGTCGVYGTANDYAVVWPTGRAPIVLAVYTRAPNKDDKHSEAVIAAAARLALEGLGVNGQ
Summary of the method: as §1

VIM-2 = molecular target: T3, VIM-2 (Escherichia coli, UniProt Q5U7L7); test: β-lactamase enzyme inhibition assay, VIM-2 (nitrocefin substrate); type: biochemical; conditions: Class B; nitrocefin substrate, 486 nm; read-out: VIM-2
T3 construct: made in house; host or cells: E. coli BL21(DE3)
Summary of the method: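 Metallo-β-lactamase VIM-2 activity was tracked spectrophotometrically at 486 nm with 100 μM nitrocefin over 10 min, following 15 min preincubation with compound at 37 °C; inhibition was calculated per concentration.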

AmpC = molecular target: T4, AmpC (Enterobacter cloacae, UniProt P05364); test: β-lactamase enzyme inhibition assay, p99 AmpC (nitrocefin substrate); type: biochemical
T4 construct: made in house; host or cells: E. coli BL21(DE3)
T4 sequence (P05364 21-381): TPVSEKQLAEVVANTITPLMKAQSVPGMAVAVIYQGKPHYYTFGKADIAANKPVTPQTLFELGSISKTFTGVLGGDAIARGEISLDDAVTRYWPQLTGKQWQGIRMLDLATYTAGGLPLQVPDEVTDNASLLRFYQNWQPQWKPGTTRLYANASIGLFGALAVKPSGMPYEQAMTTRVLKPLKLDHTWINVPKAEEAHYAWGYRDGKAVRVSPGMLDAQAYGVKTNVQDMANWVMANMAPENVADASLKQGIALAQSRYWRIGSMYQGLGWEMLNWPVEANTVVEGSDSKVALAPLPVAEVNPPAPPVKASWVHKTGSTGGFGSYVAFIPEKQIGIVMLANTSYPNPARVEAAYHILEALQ
Summary of the method: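 IC50 is the inhibitor level cutting initial substrate hydrolysis rate by 50% relative to no-inhibitor controls, after 15 min enzyme–inhibitor preincubation at 37 °C. enzymes were untagged, E. coli-expressed, chromatographically purified.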

OXA-48 = OXA-48 (UniProt Q6XEC0); test: β-lactamase enzyme inhibition assay, Class D oxacillinase; type: biochemical; conditions: read-out: OXA-48
[1] = test system: E. coli expressing the Class A Extended Spectrum Beta-Lactamase (ESBL) CTX-M-15; test: Broth microdilution MIC assay with ceftazidime, E. coli CTX-M-15; type: cell-based; conditions: Fixed CAZ (ceftazidime) 4 μg/mL; E. coli ESBL4 CTX-M-15
Summary of the method: (§2)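 In cation-adjusted Mueller Hinton broth, bacteria pre-grown 3-5 hours were exposed to test compound (2-fold, 16–0.125 μg/mL) plus a static 4 μg/ml β-lactam. A panel of control β-lactams was run alongside, and the compound MIC was judged by eye following 16-20 hours at 37° C.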

[2] = test system: E. cloacae expressing the Class C P99; test: Broth microdilution MIC assay with ceftazidime, E. cloacae P99; type: cell-based; conditions: Fixed CAZ (ceftazidime) 4 μg/mL; E. cl. 144200 p99 AmpC
Summary of the method: as §2

[3] = test system: K. pneumoniae expressing the Class A carbapenemase KPC-2; test: Broth microdilution MIC assay with meropenem, K. pneumoniae KPC-2; type: cell-based; conditions: Fixed Mero (meropenem) 4 μg/mL; K. p. 156319 KPC-3
Summary of the method: as §2

[4] = test system: P. aeruginosa expressing the Class B carbapenemase VIM-2; test: Broth microdilution MIC assay with meropenem, P. aeruginosa VIM-2; type: cell-based; conditions: Fixed Mero (meropenem) 4 μg/mL; P. aerug. 2775 VIM-2
Summary of the method: as §2

[5] = test system: K. pneumoniae expressing the class A carbapenemase KPC-2 and the class B carbapenemase VIM-4; test: Broth microdilution MIC assay with meropenem, K. pneumoniae KPC-2 and VIM-4; type: cell-based; conditions: Fixed Mero (meropenem) 4 μg/mL; K. p. A-1797 KPC-2 VIM-4
Summary of the method: as §2

[6] = test system: K. pneumoniae producing the Class D carbapenemase OXA-48; test: Broth microdilution MIC assay with meropenem, K. pneumoniae OXA-48; type: cell-based; conditions: Fixed Mero (meropenem) 4 μg/mL; K. p. 11978 OXA-48
Summary of the method: as §2

T1 sequence (P0A3M1 22-286): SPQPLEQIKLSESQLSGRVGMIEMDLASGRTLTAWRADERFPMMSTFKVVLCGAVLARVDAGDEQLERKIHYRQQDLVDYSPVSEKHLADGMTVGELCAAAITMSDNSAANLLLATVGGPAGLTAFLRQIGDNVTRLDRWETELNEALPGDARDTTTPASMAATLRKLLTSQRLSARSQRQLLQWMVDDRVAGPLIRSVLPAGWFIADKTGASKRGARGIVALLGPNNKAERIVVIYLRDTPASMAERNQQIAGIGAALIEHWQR

Row | SMILES | IC50 (SHV-5) | IC50 (KPC-2) | IC50 (VIM-2) | IC50 (AmpC) | IC50 (OXA-48) | MIC (μg/mL) of Exemplary Compounds in presence of fixed β-lactams: E. coli ESBL4 CTX-M-15 [1] | MIC (μg/mL) of Exemplary Compounds in presence of fixed β-lactams: E. cl. 144200 p99 AmpC [2] | MIC (μg/mL) of Exemplary Compounds in presence of fixed β-lactams: K. p. 156319 KPC-3 [3] | MIC (μg/mL) of Exemplary Compounds in presence of fixed β-lactams: P. aerug. 2775 VIM-2 [4] | MIC (μg/mL) of Exemplary Compounds in presence of fixed β-lactams: K. p. A-1797 KPC-2 VIM-4 [5] | MIC (μg/mL) of Exemplary Compounds in presence of fixed β-lactams: K. p. 11978 OXA-48 [6]
1 | NCCn1cncc1C(=O)N[C@H]1Cc2cccc(C(=O)O)c2OB1O [Example 73, (R)-3-(1-(2-aminoethyl)-1H-imidazole-5-carboxamido)-2-hydroxy-3,4-dihydro-2H-benzo[e][1,2]oxaborinine-8-carboxylic acid] | < 100 nM | < 100 nM | 100 to 1000 nM | < 100 nM | 100 to 1000 nM | C (C represents an MIC of <1 μg/mL) | C (C represents an MIC of <1 μg/mL) | B (B represents an MIC between 1 and 16 μg/mL inclusive) | C (C represents an MIC of <1 μg/mL) | B (B represents an MIC between 1 and 16 μg/mL inclusive) | B (B represents an MIC between 1 and 16 μg/mL inclusive)
2 | Nc1ccc(-c2cn(CC(=O)N[C@H]3Cc4cccc(C(=O)O)c4OB3O)nn2)cn1 [Example 74, (R)-3-(2-(4-(6-aminopyridin-3-yl)-1H-1,2,3-triazol-1-yl)acetamido)-2-hydroxy-3,4-dihydro-2H-benzo[e][1,2]oxaborinine-8-carboxylic acid] | < 100 nM | < 100 nM | 1000 to 10000 nM | < 100 nM | 100 to 1000 nM | C (C represents an MIC of <1 μg/mL) | C (C represents an MIC of <1 μg/mL) | B (B represents an MIC between 1 and 16 μg/mL inclusive) | B (B represents an MIC between 1 and 16 μg/mL inclusive) | A (A represents an MIC>16 μg/mL) | B (B represents an MIC between 1 and 16 μg/mL inclusive)
3 | NCc1ccc(-c2cn(CC(=O)N[C@H]3Cc4cccc(C(=O)O)c4OB3O)nn2)cn1 [Example 75, (R)-3-(2-(4-(6-(aminomethyl)pyridin-3-yl)-1H-1,2,3-triazol-1-yl)acetamido)-2-hydroxy-3,4-dihydro-2H-benzo[e][1,2]oxaborinine-8-carboxylic acid] | < 100 nM | 100 to 1000 nM | 100 to 1000 nM | < 100 nM | 100 to 1000 nM | C (C represents an MIC of <1 μg/mL) | C (C represents an MIC of <1 μg/mL) | C (C represents an MIC of <1 μg/mL) | B (B represents an MIC between 1 and 16 μg/mL inclusive) | B (B represents an MIC between 1 and 16 μg/mL inclusive) | B (B represents an MIC between 1 and 16 μg/mL inclusive)
4 | NCC(=O)NCc1cn(CC(=O)N[C@H]2Cc3cccc(C(=O)O)c3OB2O)nn1 [Example 76, (R)-3-(2-(4-((2-aminoacetamido)methyl)-1H-1,2,3-triazol-1-yl)acetamido)-2-hydroxy-3,4-dihydro-2H-benzo[e][1,2]oxaborinine-8-carboxylic acid] | < 100 nM | 100 to 1000 nM | < 100 nM | < 100 nM | 100 to 1000 nM | C (C represents an MIC of <1 μg/mL) | C (C represents an MIC of <1 μg/mL) | C (C represents an MIC of <1 μg/mL) | C (C represents an MIC of <1 μg/mL) | B (B represents an MIC between 1 and 16 μg/mL inclusive) | B (B represents an MIC between 1 and 16 μg/mL inclusive)
5 | NOCC(=O)NCc1cn(CC(=O)N[C@H]2Cc3cccc(C(=O)O)c3OB2O)nn1 [Example 77, (R)-3-(2-(4-((2-(aminooxy)acetamido)methyl)-1H-1,2,3-triazol-1-yl)acetamido)-2-hydroxy-3,4-dihydro-2H-benzo[e][1,2]oxaborinine-8-carboxylic acid] | < 100 nM | < 100 nM | 100 to 1000 nM | < 100 nM | 100 to 1000 nM | C (C represents an MIC of <1 μg/mL) | C (C represents an MIC of <1 μg/mL) | C (C represents an MIC of <1 μg/mL) | C (C represents an MIC of <1 μg/mL) | B (B represents an MIC between 1 and 16 μg/mL inclusive) | B (B represents an MIC between 1 and 16 μg/mL inclusive)
6 | O=C(Cc1cn2ccsc2n1)N[C@H]1Cc2cccc(C(=O)O)c2OB1O [Example 78, (R)-2-hydroxy-3-(2-(imidazo[2,1-b]thiazol-6-yl)acetamido)-3,4-dihydro-2H-benzo[e][1,2]oxaborinine-8-carboxylic acid] | < 100 nM | < 100 nM | 100 to 1000 nM | < 100 nM | < 100 nM | C (C represents an MIC of <1 μg/mL) | C (C represents an MIC of <1 μg/mL) | B (B represents an MIC between 1 and 16 μg/mL inclusive) | B (B represents an MIC between 1 and 16 μg/mL inclusive) | A (A represents an MIC>16 μg/mL) | B (B represents an MIC between 1 and 16 μg/mL inclusive)
7 | CNC(=O)c1cn(CC(=O)N[C@H]2Cc3cccc(C(=O)O)c3OB2O)nn1 [Example 79, (R)-2-hydroxy-3-(2-(4-(methylcarbamoyl)-1H-1,2,3-triazol-1-yl)acetamido)-3,4-dihydro-2H-benzo[e][1,2]oxaborinine-8-carboxylic acid] | < 100 nM | < 100 nM | 100 to 1000 nM | < 100 nM | 100 to 1000 nM | C (C represents an MIC of <1 μg/mL) | C (C represents an MIC of <1 μg/mL) | C (C represents an MIC of <1 μg/mL) | C (C represents an MIC of <1 μg/mL) | B (B represents an MIC between 1 and 16 μg/mL inclusive) | C (C represents an MIC of <1 μg/mL)
8 | NC1CN(C(=O)c2cn(CC(=O)N[C@H]3Cc4cccc(C(=O)O)c4OB3O)nn2)C1 [Example 80, (R)-3-(2-(4-(3-aminoazetidine-1-carbonyl)-1H-1,2,3-triazol-1-yl)acetamido)-2-hydroxy-3,4-dihydro-2H-benzo[e][1,2]oxaborinine-8-carboxylic acid] | < 100 nM | < 100 nM | 100 to 1000 nM | < 100 nM | 100 to 1000 nM | C (C represents an MIC of <1 μg/mL) | C (C represents an MIC of <1 μg/mL) | B (B represents an MIC between 1 and 16 μg/mL inclusive) | C (C represents an MIC of <1 μg/mL) | B (B represents an MIC between 1 and 16 μg/mL inclusive) | B (B represents an MIC between 1 and 16 μg/mL inclusive)
